Reference: ChEMBL document CHEMBL1201862, “PubChem BioAssay data set” (2004)
The source made the active and inactive calls.

Assays:
Protein RecA = molecular target: T1, Protein RecA (Mycobacterium tuberculosis, UniProt P9WHJ3); test: Fluorescence Cell-Free Homogeneous Dose Retest to Identify Inhibitors of RecA-Intein Splicing Activity. [Related pubchem assays (depositor defined):AID2097, AID2223, AID489010, AID492950]; assay type: functional
T1 sequence (P9WHJ3 whole entry): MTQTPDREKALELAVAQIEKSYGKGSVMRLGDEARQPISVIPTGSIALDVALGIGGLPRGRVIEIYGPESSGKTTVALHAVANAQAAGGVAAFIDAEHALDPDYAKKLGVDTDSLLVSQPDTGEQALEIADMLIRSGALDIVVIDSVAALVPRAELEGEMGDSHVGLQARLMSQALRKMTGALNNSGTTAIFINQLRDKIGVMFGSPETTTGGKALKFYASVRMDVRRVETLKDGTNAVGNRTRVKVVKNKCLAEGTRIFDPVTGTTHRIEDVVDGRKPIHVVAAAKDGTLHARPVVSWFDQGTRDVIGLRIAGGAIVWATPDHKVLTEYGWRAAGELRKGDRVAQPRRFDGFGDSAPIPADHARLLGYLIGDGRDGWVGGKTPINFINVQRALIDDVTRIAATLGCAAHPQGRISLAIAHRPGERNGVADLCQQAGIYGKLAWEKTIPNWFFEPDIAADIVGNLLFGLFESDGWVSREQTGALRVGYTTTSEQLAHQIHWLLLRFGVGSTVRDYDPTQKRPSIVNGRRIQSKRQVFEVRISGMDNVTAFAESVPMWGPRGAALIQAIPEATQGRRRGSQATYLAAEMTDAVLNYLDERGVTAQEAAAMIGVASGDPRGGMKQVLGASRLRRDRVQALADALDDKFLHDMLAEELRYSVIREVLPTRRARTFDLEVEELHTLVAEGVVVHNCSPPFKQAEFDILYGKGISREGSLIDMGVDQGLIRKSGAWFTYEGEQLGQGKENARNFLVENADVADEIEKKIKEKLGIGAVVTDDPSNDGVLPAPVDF

[1] = molecular target: T2, Replicative DNA helicase DnaB (Mycobacterium tuberculosis, UniProt P9WMR3); test: DnaB intein splicing inhibitors, dose response, biochemical, cell-free fluorescence (AID 449749); assay type: functional
T2 sequence (P9WMR3 whole entry): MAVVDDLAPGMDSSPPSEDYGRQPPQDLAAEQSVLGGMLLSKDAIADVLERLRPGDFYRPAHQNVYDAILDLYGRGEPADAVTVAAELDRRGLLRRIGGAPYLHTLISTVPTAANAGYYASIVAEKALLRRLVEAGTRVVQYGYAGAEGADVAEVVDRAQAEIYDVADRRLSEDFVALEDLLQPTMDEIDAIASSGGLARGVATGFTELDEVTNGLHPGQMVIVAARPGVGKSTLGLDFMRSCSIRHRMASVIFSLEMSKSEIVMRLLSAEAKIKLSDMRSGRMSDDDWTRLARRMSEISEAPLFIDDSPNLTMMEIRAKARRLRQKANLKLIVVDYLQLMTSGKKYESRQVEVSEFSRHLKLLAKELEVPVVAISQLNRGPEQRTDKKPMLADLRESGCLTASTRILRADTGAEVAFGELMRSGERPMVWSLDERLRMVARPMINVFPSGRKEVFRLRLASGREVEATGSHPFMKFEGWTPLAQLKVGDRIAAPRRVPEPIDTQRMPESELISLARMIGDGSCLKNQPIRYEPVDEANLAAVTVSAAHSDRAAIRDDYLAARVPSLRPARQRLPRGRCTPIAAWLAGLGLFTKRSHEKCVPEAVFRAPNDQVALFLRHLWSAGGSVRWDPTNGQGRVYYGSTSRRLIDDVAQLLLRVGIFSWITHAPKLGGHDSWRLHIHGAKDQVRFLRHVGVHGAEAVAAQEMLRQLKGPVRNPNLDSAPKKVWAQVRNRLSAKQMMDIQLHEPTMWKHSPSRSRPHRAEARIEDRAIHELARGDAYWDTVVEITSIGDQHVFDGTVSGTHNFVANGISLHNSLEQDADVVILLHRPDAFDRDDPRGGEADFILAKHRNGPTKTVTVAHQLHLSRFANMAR

fMet-Leu-Phe receptor = fMet-Leu-Phe receptor (Homo sapiens, UniProt P21462); test: FPR ligands, dose response (AID 519); assay type: functional
[2] = molecular target: T3, Ubiquitin-conjugating enzyme E2 N (Homo sapiens, UniProt P61088); assay type: functional;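 further: Dose-response confirmation in a TR-FRET assay detecting UBC13-driven polyubiquitin chain formation, inhibition measured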
T3 sequence (P61088 whole entry): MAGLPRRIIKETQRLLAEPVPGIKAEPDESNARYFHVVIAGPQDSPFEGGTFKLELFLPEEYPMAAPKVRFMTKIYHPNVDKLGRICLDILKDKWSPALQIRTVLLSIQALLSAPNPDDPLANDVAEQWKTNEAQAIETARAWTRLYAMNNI

INS1 = test: beta cell apoptosis inhibitors, cytokine rescue, dose response, luminescence, retest (AID 449756); assay type: functional, cell-based; settings: Rattus norvegicus;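 further: cell death triggered by IL-1 beta plus TNF-alpha plus IFN-gamma mixture; protective hits raise ATP signal compared with cytokine alone wells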
[3] = non-specific cell cytotoxicity, dose response, cytotoxicity control for PAX8 inhibitor project, plate reader, dry powder samples (AID 743021); assay type: functional, cell-based
[4] = molecular target: 5-hydroxytryptamine receptor 5A (Homo sapiens, UniProt P47898); test: Counterscreen for agonists of OPRM1-OPRD1 heterodimerization: luminescence-based cell-based high throughput dose response assay to identify agonists of 5-hydroxytryptamine (serotonin) 5A receptor (HTR5A). [Related pubchem assays (depositor defined):AID504326, AID504355, AID504692, AID504904, AID504905]; assay type: functional
Paired box protein Pax-8 = Paired box protein Pax-8 (Homo sapiens, UniProt Q06710); test: inhibitors of PAX8-driven TPO luciferase reporter, dose response, RMG-I cells, cherry-pick (AID 687027); assay type: functional, cell-based;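 further: luciferase reporter driven by Pax8 target thyroperoxidase promoter measured by SteadyGlo luminescence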
[5] = molecular target: Delta-type opioid receptor (Homo sapiens, UniProt P41143); test: Counterscreen for agonists of heterodimerization of the mu 1 (OPRM1) and delta 1 (OPRD1) opioid receptors: Luminescence-based cell-based high throughput dose response assay to identify agonists of OPRD1 homodimerization. [Related pubchem assays (depositor defined):AID504326, AID504355, AID504692, AID504904, AID504905]; assay type: functional
Mu-type opioid receptor = Mu-type opioid receptor (Homo sapiens, UniProt P35372); test: Counterscreen for agonists of heterodimerization of the mu 1 (OPRM1) and delta 1 (OPRD1) opioid receptors: Luminescence-based cell-based high throughput dose response assay to identify agonists of OPRM1 homodimerization.; assay type: functional;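 further: U2OS cells expressing OPRM1 and beta-arrestin as split beta-galactosidase partners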
[6] = tested on: Streptococcus sp. 'group A'; test: growth inhibition of control SK(-) GAS strain, dose response, counter-screen for streptokinase expression inhibitor project, luminescence, kanamycin, BacTiterGlo, confirmation (AID 1900); assay type: functional, organism-based
[7] = inhibitors of intracellular T. cruzi replication, confirmation, NIH3T3 host cells, beta-gal luminescence (AID 2044); assay type: functional, cell-based;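 further: intracellular parasites grown in NIH/3T3 mouse fibroblasts as host cells; luminescent beta-galactosidase reporter signal from transgenic T. cruzi replicating inside host cells; inhibitors lower the luminescence signal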
[8] = molecular target: DNA repair protein RAD52 homolog (Homo sapiens, UniProt P43351); assay type: functional, biochemical
[9] = molecular target: Heat shock protein HSP 90-alpha (Homo sapiens, UniProt P07900); assay type: functional, organism-based
[10] = molecular target: T4, Apoptotic protease-activating factor 1 (Homo sapiens, UniProt O14727); assay type: functional
T4 sequence (O14727 whole entry): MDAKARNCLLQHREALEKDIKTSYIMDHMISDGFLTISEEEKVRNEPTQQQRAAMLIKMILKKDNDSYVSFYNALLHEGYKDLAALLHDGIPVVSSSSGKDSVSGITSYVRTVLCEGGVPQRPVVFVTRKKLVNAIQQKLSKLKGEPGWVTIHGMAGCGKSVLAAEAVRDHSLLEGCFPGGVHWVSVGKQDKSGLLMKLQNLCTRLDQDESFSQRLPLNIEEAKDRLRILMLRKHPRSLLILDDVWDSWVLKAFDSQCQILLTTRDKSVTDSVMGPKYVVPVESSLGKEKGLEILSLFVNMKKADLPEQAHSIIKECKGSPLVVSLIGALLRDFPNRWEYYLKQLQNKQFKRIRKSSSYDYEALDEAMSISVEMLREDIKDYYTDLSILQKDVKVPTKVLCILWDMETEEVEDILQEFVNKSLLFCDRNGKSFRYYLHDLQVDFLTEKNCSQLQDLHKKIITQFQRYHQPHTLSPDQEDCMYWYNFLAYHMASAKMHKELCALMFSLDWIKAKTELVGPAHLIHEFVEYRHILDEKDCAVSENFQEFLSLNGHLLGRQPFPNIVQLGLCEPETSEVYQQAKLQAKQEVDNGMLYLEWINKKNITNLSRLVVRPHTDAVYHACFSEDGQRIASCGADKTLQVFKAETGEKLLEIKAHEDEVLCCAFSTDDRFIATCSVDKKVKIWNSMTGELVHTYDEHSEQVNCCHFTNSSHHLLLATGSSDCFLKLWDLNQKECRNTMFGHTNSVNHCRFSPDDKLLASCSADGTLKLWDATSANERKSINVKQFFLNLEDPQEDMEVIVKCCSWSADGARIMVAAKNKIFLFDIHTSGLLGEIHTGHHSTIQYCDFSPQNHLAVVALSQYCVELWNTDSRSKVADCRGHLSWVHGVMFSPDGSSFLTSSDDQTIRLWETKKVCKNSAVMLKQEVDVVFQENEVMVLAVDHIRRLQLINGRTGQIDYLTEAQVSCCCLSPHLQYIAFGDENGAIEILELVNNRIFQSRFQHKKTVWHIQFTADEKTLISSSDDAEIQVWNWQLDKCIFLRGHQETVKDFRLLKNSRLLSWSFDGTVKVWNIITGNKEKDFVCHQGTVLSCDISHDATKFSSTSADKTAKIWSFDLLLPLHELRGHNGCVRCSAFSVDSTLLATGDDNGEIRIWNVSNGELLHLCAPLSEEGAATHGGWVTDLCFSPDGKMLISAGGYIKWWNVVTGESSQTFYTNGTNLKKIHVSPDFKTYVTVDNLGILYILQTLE

[11] = cytotoxicity toward NIH3T3 fibroblasts, dose response, counter-screen, cell-based, ATP luminescence, mouse fibroblasts (AID 2010); assay type: functional;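 further: cells exposed to compound for about 90 hours before reading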
Melanocortin receptor 4 = Melanocortin receptor 4 (Homo sapiens, UniProt P32245); assay type: functional, cell-based;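 further: Cell-based assay with luminescence read-out, confirmatory dose-response testing for agonist activity of biased ligands at MC4R; human U2OS cells with tagged receptor and beta-arrestin; potency of agonists that increase receptor coupling to beta-arrestin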
Streptococcus = test: Group A Streptococcus viability loss, dose response, counter-screen for streptokinase expression inhibitor project, luminescence, BacTiterGlo (AID 1915); assay type: functional, organism-based;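 further: potency for reduction of bacterial viability or growth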
[12] = Dose-response inhibition of insulin secretion in a rat insulinoma line at 5 mM glucose (AID 1117331); assay type: functional, cell-based; settings: INS-1E
[13] = MC4R antagonists, dose response, counter-screen for LGR2 antagonist project, cell-based, plate reader, cherry pick (AID 743444); assay type: functional;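 further: transfected HEK 293 cells stimulated with alpha-MSH peptide; potency of inhibitors of the alpha-MSH evoked signal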
[14] = LGR2 antagonists, dose response, cell-based, HEK293, CRE-luciferase reporter, cherry pick, set 2 (AID 743343); assay type: functional;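 further: transfected cells were stimulated with diluted bursicon conditioned medium after compound addition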
[15] = HEK293 cell cytotoxicity, dose response, cytotoxicity control, plate reader, cherry-picked samples (AID 743446); assay type: functional, cell-based
[16] = A549 cell cytotoxicity, dose response, cytotoxicity control, plate reader, cherry-pick, antagonist series (AID 743412); assay type: functional, cell-based
[17] = HepG2 cell cytotoxicity, dose response, cytotoxicity control, plate reader, cherry-pick, antagonist series (AID 743416); assay type: functional, cell-based

Paired box protein Pax-8, sequence (Q06710 whole entry): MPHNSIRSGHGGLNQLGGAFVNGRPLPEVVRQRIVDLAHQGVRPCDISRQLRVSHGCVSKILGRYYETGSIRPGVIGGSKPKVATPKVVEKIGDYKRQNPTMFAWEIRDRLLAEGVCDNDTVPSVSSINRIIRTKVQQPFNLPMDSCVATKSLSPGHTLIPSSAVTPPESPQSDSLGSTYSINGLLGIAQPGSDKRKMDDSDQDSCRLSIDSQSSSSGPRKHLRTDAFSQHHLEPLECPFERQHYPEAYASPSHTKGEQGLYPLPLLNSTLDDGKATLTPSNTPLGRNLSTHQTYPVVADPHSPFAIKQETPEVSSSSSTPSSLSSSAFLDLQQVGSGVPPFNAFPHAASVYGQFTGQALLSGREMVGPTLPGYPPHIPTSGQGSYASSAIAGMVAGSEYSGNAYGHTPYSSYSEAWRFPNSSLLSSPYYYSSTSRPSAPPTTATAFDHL
fMet-Leu-Phe receptor, sequence (P21462 whole entry): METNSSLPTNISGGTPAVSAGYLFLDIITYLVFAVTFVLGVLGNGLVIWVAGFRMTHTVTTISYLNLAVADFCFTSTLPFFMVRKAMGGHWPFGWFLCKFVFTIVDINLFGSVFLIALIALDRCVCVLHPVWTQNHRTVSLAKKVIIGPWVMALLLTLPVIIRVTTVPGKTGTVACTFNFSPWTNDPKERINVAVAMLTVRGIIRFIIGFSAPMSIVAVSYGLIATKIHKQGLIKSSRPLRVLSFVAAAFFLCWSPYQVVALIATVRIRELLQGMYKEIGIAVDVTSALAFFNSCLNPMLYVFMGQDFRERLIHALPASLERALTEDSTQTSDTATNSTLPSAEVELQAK
Delta-type opioid receptor, sequence (P41143 whole entry): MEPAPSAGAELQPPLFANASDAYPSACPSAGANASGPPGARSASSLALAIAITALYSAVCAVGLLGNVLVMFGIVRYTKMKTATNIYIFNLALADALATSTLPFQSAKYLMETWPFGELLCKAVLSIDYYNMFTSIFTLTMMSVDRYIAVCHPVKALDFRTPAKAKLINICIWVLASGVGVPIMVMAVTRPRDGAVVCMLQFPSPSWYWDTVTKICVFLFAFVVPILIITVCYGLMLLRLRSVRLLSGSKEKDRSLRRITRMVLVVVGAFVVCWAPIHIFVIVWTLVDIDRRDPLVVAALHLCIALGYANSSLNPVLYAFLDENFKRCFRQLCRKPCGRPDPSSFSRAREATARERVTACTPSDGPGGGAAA
Mu-type opioid receptor, sequence (P35372 whole entry): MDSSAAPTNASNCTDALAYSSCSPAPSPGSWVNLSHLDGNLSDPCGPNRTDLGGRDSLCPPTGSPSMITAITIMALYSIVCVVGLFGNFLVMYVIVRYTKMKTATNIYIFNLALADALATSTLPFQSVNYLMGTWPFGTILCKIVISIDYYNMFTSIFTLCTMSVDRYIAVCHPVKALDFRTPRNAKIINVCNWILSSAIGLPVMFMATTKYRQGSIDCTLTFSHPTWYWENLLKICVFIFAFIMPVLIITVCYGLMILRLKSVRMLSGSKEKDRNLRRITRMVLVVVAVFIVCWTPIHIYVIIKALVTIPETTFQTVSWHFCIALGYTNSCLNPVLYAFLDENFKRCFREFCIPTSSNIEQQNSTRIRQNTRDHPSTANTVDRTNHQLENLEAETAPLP
Melanocortin receptor 4, sequence (P32245 whole entry): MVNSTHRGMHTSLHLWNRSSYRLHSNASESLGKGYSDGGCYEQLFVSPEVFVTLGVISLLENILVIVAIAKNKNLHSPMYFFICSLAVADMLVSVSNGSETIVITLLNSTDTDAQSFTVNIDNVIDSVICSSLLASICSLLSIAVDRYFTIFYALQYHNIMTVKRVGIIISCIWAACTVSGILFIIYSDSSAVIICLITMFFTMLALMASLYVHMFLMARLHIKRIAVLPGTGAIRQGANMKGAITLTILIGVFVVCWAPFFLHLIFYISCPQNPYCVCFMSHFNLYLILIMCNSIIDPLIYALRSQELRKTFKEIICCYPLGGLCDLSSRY
DNA repair protein RAD52 homolog, sequence (P43351 whole entry): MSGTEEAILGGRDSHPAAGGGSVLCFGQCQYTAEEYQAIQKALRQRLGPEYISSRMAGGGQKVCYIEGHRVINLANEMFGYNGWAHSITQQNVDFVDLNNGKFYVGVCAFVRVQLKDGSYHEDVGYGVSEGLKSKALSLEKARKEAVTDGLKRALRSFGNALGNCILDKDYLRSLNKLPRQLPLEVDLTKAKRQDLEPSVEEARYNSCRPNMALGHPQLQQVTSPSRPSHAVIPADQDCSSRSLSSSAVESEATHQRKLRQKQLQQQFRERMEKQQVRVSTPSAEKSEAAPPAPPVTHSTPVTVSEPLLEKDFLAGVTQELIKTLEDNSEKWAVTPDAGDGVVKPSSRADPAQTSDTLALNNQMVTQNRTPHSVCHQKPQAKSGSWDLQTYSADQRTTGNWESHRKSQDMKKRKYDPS
5-hydroxytryptamine receptor 5A, sequence (P47898 whole entry): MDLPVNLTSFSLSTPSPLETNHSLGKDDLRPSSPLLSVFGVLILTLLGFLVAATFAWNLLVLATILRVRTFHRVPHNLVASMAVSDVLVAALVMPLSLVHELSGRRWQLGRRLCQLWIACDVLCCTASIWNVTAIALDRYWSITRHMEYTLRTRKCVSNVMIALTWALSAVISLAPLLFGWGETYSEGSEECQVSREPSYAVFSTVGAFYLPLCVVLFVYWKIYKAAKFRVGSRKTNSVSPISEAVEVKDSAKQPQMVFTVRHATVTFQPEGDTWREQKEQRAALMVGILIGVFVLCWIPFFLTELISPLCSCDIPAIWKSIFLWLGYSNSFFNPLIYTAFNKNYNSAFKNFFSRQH

Compound: COc1cc(-n2nc(C)c3c2OC(N)=C(C#N)C3c2ccccc2)c(Cl)c(Br)c1O (stereo unspecified)
- EC50 (Protein RecA): 3.47 µM (active)
- AC50 [1]: 15.6 µM (active)
- Ki (fMet-Leu-Phe receptor): 32.5 µM (inactive)

Compound: CC1(C)S[C@@H]2[C@H](NC(=O)Cc3ccccc3)C(=O)N2[C@H]1C(=O)O [PENICILLIN G POTASSIUM]
- Ki (fMet-Leu-Phe receptor): 7.8 µM (active)

Compound: CCN1CCN(Cc2ccc(NC(=O)c3ccc(C)c(NC(=O)c4cnc5cc(C(F)(F)F)ccc5c4O)c3)cc2C(F)(F)F)CC1
- IC50 [2]: > 20 µM (inactive)
- AC50 (INS1): 4.42 µM (active)
- AC50 [3]: 26.2 µM (active)
- EC50 [4]: > 92.5 µM (inactive)
- AC50 (Paired box protein Pax-8): 10.6 µM (active)
- EC50 [5]: 11.2 µM (inactive)
- EC50 (Mu-type opioid receptor): > 92.5 µM (inactive)

Compound: CCCCCCCCCCOC(=O)C[n+]1c(COc2cccc(C)c2)n(C)c2ccccc21
- IC50 [2]: > 20 µM (inactive)
- EC50 [6]: 4.16 µM (active)
- AC50 (INS1): 3.87 µM (active)
- EC50 [7]: 1 µM (active)
- AC50 [8]: 11.9 µM (active)
- AC50 [9]: 32.5 µM (active)
- IC50 [10]: 15.9 µM (active)
- EC50 (Protein RecA): 9.88 µM (active)
- EC50 [11]: > 60 µM (not active)
- AC50 [1]: 3.19 µM (active)
- EC50 (Melanocortin receptor 4): > 89.2 µM (inactive)
- EC50 (Streptococcus): 7.73 µM (active)

Compound: C[C@@H](CN(C)C)CN1c2ccccc2Sc2ccccc21
- IC50 [12]: > 33.3 µM (inactive)

Compound: Oc1nc2ccccc2n1C1CCN(C(c2cc3ccccc3o2)c2nnnn2-c2ccc3c(c2)OCCO3)CC1 (stereo unspecified)
- AC50 [3]: 24.3 µM (active)
- AC50 [13]: 8.87 µM (active)
- AC50 [14]: 11.6 µM (active)
- AC50 [15]: 15.5 µM (active)
- AC50 (Paired box protein Pax-8): 5.8 µM (active)
- AC50 [16]: 12.6 µM (active)
- AC50 [17]: 39.1 µM (active)
